Assay results taken from patent US20170190671A1, “BIS(ARYL)CATECHOL DERIVATIVES AS HERBICIDES” (E I DU PONT DE NEMOURS AND COMPANY, priority 2014, published 2017).

Assays:
Details in all cases: scale 0 to 100
wild oat (Avenafatua) = assay: Test D preemergence; format: in vivo, Avena fatua
Description: Seeds of plant species selected from bluegrass (annual bluegrass, Poa annua), blackgrass (Alopecurus myosuroides), canarygrass (Phalaris minor), chickweed (common chickweed, Stellaria media), cutleaf geranium (Geranium dissectum), galium (catchweed bedstraw, Galium aparine), downy bromegrass (Bromus tectorum), field poppy (Papaver rhoeas), field violet (Viola arvensis), green foxtail (Setaria viridis), deadnettle (henbit deadnettle, Lamium amplexicaule), Italian ryegrass (Lolium multiflorum), kochia (Kochia scoparia), lambsquarters (Chenopodium album), oilseed rape (Brassica napus), pigweed (Amaranthus retroflexus), chamomile (scentless chamomile, Matricaria inodora), Russian thistle (Salsola kali), speedwell (bird's-eye speedwell, Veronica persica), spring barley (Hordeum vulgare), spring wheat (Triticum aestivum), wild buckwheat (Polygonum convolvulus), wild mustard (Sinapis arvensis), wild oat (Avenafatua), wild radish (Raphanus raphanistrum), windgrass (Apera spica-venti), winter barley (Hordeum vulgare), and winter wheat (Triticum aestivum) were planted into a silt loam soil and treated preemergence with test chemicals formulated in a non-phytotoxic solvent mixture which included a surfactant.
At the same time, these species were planted in pots containing Redi-Earth® planting medium (Scotts Company, 14111 Scottslawn Road, Marysville, Ohio 43041) comprising spaghnum peat moss, vermiculite, wetting agent and starter nutrients and treated with postemergence applications of the test chemicals formulated in the same manner. Plants ranged in height from 2 to 18 cm (1- to 4-leaf stage). Treated plants and controls were maintained in a controlled growth environment for 14 to 21 days after which time all species were compared to controls and visually evaluated. Plant response ratings, summarized in Table D, are based on a scale of 0 to 100 where 0 is no effect and 100 is complete control. A dash (-) response means no test result.

[1] = system: wild poinsettia (Euphorbia heterophylla); assay: Test E preemergence; format: in vivo
In short: (§1)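 Preemergence: seeds in silt loam treated with compound in non-phytotoxic solvent with surfactant. Postemergence: plants at 1- to 4-leaf stage (2–18 cm) in peat-based medium sprayed likewise. Greenhouse 14–21 days, then visual rating vs controls, 0 (no effect) to 100 (complete control).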

[2] = system: johnsongrass (Sorghum halepense); assay: Test E preemergence; format: in vivo
In short: as §1

Row | Structure (SMILES) | Plant response rating, Oat, Wild (wild oat (Avenafatua); 16 g ai/ha) | Plant response rating, Oat, Wild (wild oat (Avenafatua); 31 g ai/ha) | Plant response rating, Oat, Wild (wild oat (Avenafatua); 62 g ai/ha) | Plant response rating, Oat, Wild (wild oat (Avenafatua); 125 g ai/ha) | Plant response rating, Poinsettia, Wild ([1]; 16 g ai/ha) | Plant response rating, Poinsettia, Wild ([1]; 31 g ai/ha) | Plant response rating, Poinsettia, Wild ([1]; 62 g ai/ha) | Plant response rating, Poinsettia, Wild ([1]; 125 g ai/ha) | Plant response rating, Johnsongrass ([2]; 16 g ai/ha) | Plant response rating, Johnsongrass ([2]; 31 g ai/ha) | Plant response rating, Johnsongrass ([2]; 62 g ai/ha) | Plant response rating, Johnsongrass ([2]; 125 g ai/ha)
1 | N#Cc1cccc(Oc2ncc(Cl)cn2)c1Oc1ncc(Cl)cn1 [Compound 3, 2,3-bis[(5-chloro-2-pyrimidinyl)oxy]benzonitrile] | 0 | 0 | 0 | 50 | – | – | – | – | – | – | – | –
2 | Clc1cnc(Oc2cccc(Br)c2Oc2ncc(Cl)cn2)nc1 [Compound 19, 2,2′-[[3-bromo-1,2-phenylene]bis(oxy)]bis[5-chloropyrimidine]] | – | – | – | – | 0 | 0 | 15 | 70 | 0 | 0 | 50 | 100
3 | Fc1cccc(Oc2ncc(Cl)cn2)c1Oc1ncc(Cl)cn1 [Compound 21, 2,2′-[[3-fluoro-1,2-phenylene]bis(oxy)]bis[5-chloropyrimidine]] | – | – | – | – | 0 | 10 | 50 | 60 | 0 | 30 | 65 | 100
4 | Fc1cnc(Oc2c(Br)cccc2Oc2ncc(Cl)cn2)nc1 [Compound 22] | 5 | 10 | 20 | 25 | – | – | – | – | – | – | – | –
5 | Fc1cnc(Oc2c(F)cccc2Oc2ncc(Cl)cn2)nc1 [Compound 23] | 5 | 15 | 70 | 98 | – | – | – | – | – | – | – | –
